Data: patent US10485881B2, “Nanoparticle drug conjugates” (Memorial Sloan Kettering Cancer Center, priority 2014, dated 2019)
Entries after “also recorded” stand apart in the source; their conditions may differ. Like-named read-outs stand apart in the source and are kept apart here.

Assays:
[1] = biological target: T1, trypsin (Bos taurus, UniProt P00760); test: Drug release assay with trypsin; format: biochemical, bovine; settings: for half-life at 25 μM: bovine, pH 7.2, free linker-drug constructs, HPLC at 348 nm, 37° C., phosphate buffer pH 7.2, read-out: Trypsin t1/2 (time when 50% of the drug is released from linker); for Time to complete hydrolysis / complete release of drug with trypsin: free linker-drug constructs, monitored by HPLC or LCMS
T1 construct: purchased Sigma-Aldrich
T1 sequence (P00760 24-246): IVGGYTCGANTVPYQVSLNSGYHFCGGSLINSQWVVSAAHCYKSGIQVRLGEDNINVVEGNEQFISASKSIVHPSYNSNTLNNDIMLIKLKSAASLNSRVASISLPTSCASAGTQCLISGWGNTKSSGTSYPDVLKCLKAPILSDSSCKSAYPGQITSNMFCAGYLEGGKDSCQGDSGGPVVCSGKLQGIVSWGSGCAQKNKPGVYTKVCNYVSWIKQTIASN
Description: Drug Release Assays with Trypsin:
For analysis, 70 μL portions were removed and quenched with acid (HCl) at specified time points (e.g., 5, 15, 30, 60, 120 minutes or longer) then run on HPLC/LCMS. NDCs were stored in water at 4° C. Trypsin stocks were prepared as follows: 1 mg of trypsin was dissolved in 1 mL water, aliquoted, then immediately flash frozen and stored at −80° C. for up to four weeks. Enzyme activity was tested prior to drug release assay using the substrate Z-Arg-Arg-para-nitro-aniline. The % Free Drug (FIGS. 3 and S3) is the quantity of free drug divided by the initial quantity of drug loaded for the linker-drug construct or NDC. The quantity of free drug is determined by area of the HPLC peak corresponding to the released drug at 348 nm. The quantity of drug loaded is the area of the HPLC peak, at 348 nm, for the linker-drug construct or NDC prior to enzyme treatment. As the C'dot-(Cy5)-PEG-mal has background absorbance at 348 nm, a background subtraction for the NDC is necessary. All buffers and solutions were prepared using ultra-pure water (18 Me-cm resistivity).

[2] = biological target: cathepsin B (Homo sapiens, UniProt P07858); test: Drug release assay with cathepsin B; format: biochemical; settings: free linker-drug constructs; for Hydrolysis / drug release in the presence of cathepsin B: monitored by HPLC or LCMS; for half-life at 25 μM: HPLC at 348 nm, sodium acetate buffer pH 5.0, NH = no hydrolysis, read-out: Cathepsin B t1/2 (time when 50% of the drug is released from linker)
Description: Drug Release Assays with Cathepsin B:
For analysis, 70 μL portions were removed and quenched with acid (HCl) at specified time points (e.g., 5, 15, 30, 60, 120 minutes or longer) then run on HPLC/LCMS. NDCs were stored in water at 4° C. […] Enzyme activity was tested prior to drug release assay using the substrate Z-Arg-Arg-para-nitro-aniline. The % Free Drug (FIGS. 4A, 4B, 6A and 6B) is the quantity of free drug divided by the initial quantity of drug loaded for the linker-drug construct or NDC, as described in the previous paragraph. All buffers and solutions were prepared using ultra-pure water (18 MΩ-cm resistivity).

[3] = biological target: EGFR (phospho-Tyr168) in H1650 cells (Homo sapiens, UniProt P00533, DEL746-750); test: PhosphoEGFR assay with H1650 cells (western blot); settings: 1 and 10 μM, compared with gefitinib
Description: Serum starved cells were incubated with each compound over a period of 18 hours, then subject to EGF stimulation.
PhosphoEGFR Assay with H1650 Cells:
H1650 cells were seeded (1.5 million cells) in 6-well plates with 2 ml of 10% FBS DEM medium and grown for 24 hrs. Cells were washed with 1 mL of serum free DEM medium, then incubated with gefitinib or NDCs at indicated concentrations overnight (18 hrs). Cells were then treated with 50 ng/mL EGF for 5 minutes, then washed with 1 mL of PBS. […] 1 mL of 10% FBS DEM medium was added to wells, and cells were transferred to 15 mL conical tubes containing 10 mL of 10% FBS DEM medium. Cells were spun down at 3000 rpm for 5 minutes at 4° C. The cell pellets were washed with 1 mL cold PBS, transferred to 1.5 mL tubes, and spun down. PBS was decanted and 70 μL of RIPA (containing protease and phosphatase inhibitors) was added to the pellet, titurated, and incubated for 10 minutes on ice. Tubes were spun at maximum speed for 10 minutes at 4° C. Lysate was transferred to new 1.5 ml tubes and stored at −80° C. Protein concentrations were determined by the Bradford assay. Western blots were run on a Life Technologies apparatus, using Novex 8% tris-glycine gels (1.5 mm×15 wells), tris-glycine SDS running buffer, NuPAGE transfer buffer, 0.1% Tween-20 in 1×TBS washing buffer, and 5% milk in the washing buffer as the blocking buffer. […]

Row | Compound | half-life at 25 μM [1] [min] | Time to complete hydrolysis / complete release of drug with trypsin [1] [min] | Hydrolysis / drug release in the presence of cathepsin B [2] | half-life at 25 μM ([2]; cathepsin B (isolated enzyme)) [min] | half-life at 25 μM [2] [min] | Inhibition of phospho-Tyr168 in EGFR [3]
1 | COc1cc2ncnc(Nc3ccc(F)c(Cl)c3)c2cc1OCCCNC(=O)[C@H](CCCNC(=N)N)NC(=O)[C@H](Cc1ccccc1)NC(=O)CCOCCOCCNC(=O)CCOCCOCCNC(=O)CCOCCOCCNC(=O)CS [Phe-Arg-APdMG (3), Mercaptoacetamido-(dPEG2)3-Phe-Arg-APdMG] | 9 | ≤ 60 | no hydrolysis was observed; also recorded: no drug release was observed | – | – | –
2 | COc1cc2ncnc(Nc3ccc(F)c(Cl)c3)c2cc1OCCCNC(=O)OCc1ccc(NC(=O)[C@H](CCCCN)NC(=O)[C@H](Cc2ccccc2)NC(=O)CCOCCOCCOCCOCCOCCOCCOCCOCCS)cc1 [Phe-Lys-PABC-APdMG (5), HS-dPEG8-Phe-Lys-PABC-aminopropyl-dMG] | < 1 | 10 | – | < 1 | – | –
3 | COc1cc2ncnc(Nc3ccc(F)c(Cl)c3)c2cc1OCCCNC(=O)CCOCCOCCNC(=O)[C@H](CCCNC(=N)N)NC(=O)[C@H](Cc1ccccc1)NC(=O)CCOCCOCCNC(=O)CCOCCOCCNC(=O)CCOCCOCCNC(=O)CS [Phe-Arg-dPEG2APdMG (4), Mercaptoacetamido-(dPEG2)3-Phe-Arg-dPEG2APdMG] | ≤ 2 | 10 | completely hydrolyzed | – | 110 | –
4 | Amino-dPEG2-aminopropyl-dMG [dPEG2APdMG 2] | – | – | – | – | – | reduced activity
